The source made the active and inactive calls. The calls are words filed in the database; no cut-off is given here.
What was measured:
[1] = biological target: T1, Protein cereblon/Eukaryotic elongation factor 2 kinase (Homo sapiens) (UniProt O00418+Q96SW2); assay: Protac activity at eEF2K/E3 ubiquitin ligase in human MDA-MB-231 cells assessed as degradation of eEF2K at 200 uM measured after 24 hrs by western blot assay; assay type: cell-based
[2] = biological target: T2, Eukaryotic elongation factor 2 kinase (Homo sapiens, UniProt O00418); assay: Inhibition of eEF2K (unknown origin)
T2 sequence (O00418 whole entry): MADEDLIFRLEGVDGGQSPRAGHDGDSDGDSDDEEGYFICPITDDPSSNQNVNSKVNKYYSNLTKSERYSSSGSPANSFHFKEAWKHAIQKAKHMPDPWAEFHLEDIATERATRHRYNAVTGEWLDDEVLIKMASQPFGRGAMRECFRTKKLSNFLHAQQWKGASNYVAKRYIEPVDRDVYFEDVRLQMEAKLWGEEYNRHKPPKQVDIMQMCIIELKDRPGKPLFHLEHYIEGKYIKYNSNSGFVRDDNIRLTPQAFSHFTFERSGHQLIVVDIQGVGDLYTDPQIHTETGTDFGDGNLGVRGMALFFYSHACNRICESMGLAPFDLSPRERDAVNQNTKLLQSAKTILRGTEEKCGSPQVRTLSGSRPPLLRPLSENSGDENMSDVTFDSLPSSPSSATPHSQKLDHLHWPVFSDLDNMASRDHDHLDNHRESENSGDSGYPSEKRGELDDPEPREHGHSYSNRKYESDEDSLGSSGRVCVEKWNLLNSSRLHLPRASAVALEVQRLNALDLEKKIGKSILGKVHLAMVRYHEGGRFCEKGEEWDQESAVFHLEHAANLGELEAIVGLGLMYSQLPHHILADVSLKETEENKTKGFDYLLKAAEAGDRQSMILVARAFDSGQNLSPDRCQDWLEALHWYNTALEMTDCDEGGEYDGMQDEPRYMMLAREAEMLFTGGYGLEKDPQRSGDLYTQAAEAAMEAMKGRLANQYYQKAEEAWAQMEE

[3] = biological target: T1, Protein cereblon/Eukaryotic elongation factor 2 kinase (Homo sapiens); assay: Protac activity at eEF2K/E3 ubiquitin ligase in human MDA-MB-231 cells assessed as degradation of eEF2K at 12.5 to 200 uM measured after 24 hrs by western blot assay; assay type: cell-based; conditions: dose 12.5-200 µM
[4] = biological target: T1, Protein cereblon/Eukaryotic elongation factor 2 kinase (Homo sapiens); assay: Protac activity at eEF2K/E3 ubiquitin ligase in human MDA-MB-231 cells assessed as degradation of eEF2K at 100 uM pretreated with MG-132 for 2 hrs followed by compound addition measured after 8 hrs by western blot assay; assay type: cell-based
[5] = biological target: T1, Protein cereblon/Eukaryotic elongation factor 2 kinase (Homo sapiens); assay: Protac activity at eEF2K/E3 ubiquitin ligase in human MDA-MB-231 cells assessed as degradation of eEF2K at 100 uM pretreated with thalidomide for 2 hrs followed by compound addition measured after 8 hrs by western blot assay; assay type: cell-based
[6] = biological target: T1, Protein cereblon/Eukaryotic elongation factor 2 kinase (Homo sapiens); assay: Protac activity at eEF2K/E3 ubiquitin ligase in human MDA-MB-231 cells assessed as degradation of eEF2K measured after 24 hrs by western blot assay; assay type: cell-based; conditions: dose 50-200 µM
[7] = biological target: T1, Protein cereblon/Eukaryotic elongation factor 2 kinase (Homo sapiens); assay: Protac activity at eEF2K/E3 ubiquitin ligase in human MDA-MB-231 cells assessed as degradation of p-eEF2K measured after 24 hrs by western blot assay; assay type: cell-based; conditions: dose 50-200 µM
[8] = system: MDA-MB-231; assay: Antiproliferative activity against human MDA-MB-231 cells at 100 uM measured by crystal violet staining based colony forming assay; assay type: functional, cell-based
[9] = system: MDA-MB-231; assay: Induction of apoptosis in human MDA-MB-231 cells at 100 uM measured after 24 hrs by Hoechst staining based fluorescence microscopic method; assay type: functional, cell-based
[10] = system: MDA-MB-231; assay: Induction of apoptosis in human MDA-MB-231 cells assessed as viable cells at 50 uM measured after 24 hrs by Annexin V/PI staining based flowcytometry method (reference value: 94.63%); assay type: functional; conditions: read-out: Activity
[11] = system: MDA-MB-231; assay: Induction of apoptosis in human MDA-MB-231 cells assessed as early apoptotic cells at 50 uM measured after 24 hrs by Annexin V/PI staining based flowcytometry method (reference value: 3.12%); assay type: functional
[12] = system: MDA-MB-231; assay: Induction of apoptosis in human MDA-MB-231 cells assessed as late apoptotic cells at 50 uM measured after 24 hrs by Annexin V/PI staining based flowcytometry method (reference value: 1.81%); assay type: functional
[13] = system: MDA-MB-231; assay: Induction of apoptosis in human MDA-MB-231 cells assessed as necrotic cells at 50 uM measured after 24 hrs by Annexin V/PI staining based flowcytometry method (reference value: 0.44%); assay type: functional
[14] = system: MDA-MB-231; assay: Induction of apoptosis in human MDA-MB-231 cells assessed as viable cells at 100 uM measured after 24 hrs by Annexin V/PI staining based flowcytometry method (reference value: 94.63%); assay type: functional; conditions: read-out: Activity
[15] = system: MDA-MB-231; assay: Induction of apoptosis in human MDA-MB-231 cells assessed as early apoptotic cells at 100 uM measured after 24 hrs by Annexin V/PI staining based flowcytometry method (reference value: 3.12%); assay type: functional
[16] = system: MDA-MB-231; assay: Induction of apoptosis in human MDA-MB-231 cells assessed as late apoptotic cells at 100 uM measured after 24 hrs by Annexin V/PI staining based flowcytometry method (reference value: 1.81%); assay type: functional
[17] = system: MDA-MB-231; assay: Induction of apoptosis in human MDA-MB-231 cells assessed as necrotic cells at 100 uM measured after 24 hrs by Annexin V/PI staining based flowcytometry method (reference value: 0.44%); assay type: functional
[18] = system: MDA-MB-231; assay: Induction of apoptosis in human MDA-MB-231 cells assessed as viable cells at 200 uM measured after 24 hrs by Annexin V/PI staining based flowcytometry method (reference value: 94.63%); assay type: functional; conditions: read-out: Activity
[19] = system: MDA-MB-231; assay: Induction of apoptosis in human MDA-MB-231 cells assessed as early apoptotic cells at 200 uM measured after 24 hrs by Annexin V/PI staining based flowcytometry method (reference value: 3.12%); assay type: functional
[20] = system: MDA-MB-231; assay: Induction of apoptosis in human MDA-MB-231 cells assessed as late apoptotic cells at 200 uM measured after 24 hrs by Annexin V/PI staining based flowcytometry method (reference value: 1.81%); assay type: functional
[21] = system: MDA-MB-231; assay: Induction of apoptosis in human MDA-MB-231 cells assessed as necrotic cells at 200 uM measured after 24 hrs by Annexin V/PI staining based flowcytometry method (reference value: 0.44%); assay type: functional
[22] = system: MCF-10A; assay: Cytotoxicity against human MCF-10A cells; assay type: cell-based
[23] = system: MDA-MB-231; assay: Induction of apoptosis in human MDA-MB-231 cells assessed as upregulation of Bax expression at 50 to 200 uM measured after 24 hrs by western blot assay; assay type: functional, cell-based; conditions: dose 50-200 µM
[24] = system: MDA-MB-231; assay: Induction of apoptosis in human MDA-MB-231 cells assessed as upregulation of cleaved caspase3 expression at 50 to 200 uM measured after 24 hrs by western blot assay; assay type: functional, cell-based; conditions: dose 50-200 µM
[25] = system: MDA-MB-231; assay: Induction of apoptosis in human MDA-MB-231 cells assessed as decrease in Bcl2 expression at 50 to 200 uM measured after 24 hrs by western blot assay; assay type: functional, cell-based; conditions: dose 50-200 µM

T1 sequence (Q96SW2 whole entry, looked up, one chain of several): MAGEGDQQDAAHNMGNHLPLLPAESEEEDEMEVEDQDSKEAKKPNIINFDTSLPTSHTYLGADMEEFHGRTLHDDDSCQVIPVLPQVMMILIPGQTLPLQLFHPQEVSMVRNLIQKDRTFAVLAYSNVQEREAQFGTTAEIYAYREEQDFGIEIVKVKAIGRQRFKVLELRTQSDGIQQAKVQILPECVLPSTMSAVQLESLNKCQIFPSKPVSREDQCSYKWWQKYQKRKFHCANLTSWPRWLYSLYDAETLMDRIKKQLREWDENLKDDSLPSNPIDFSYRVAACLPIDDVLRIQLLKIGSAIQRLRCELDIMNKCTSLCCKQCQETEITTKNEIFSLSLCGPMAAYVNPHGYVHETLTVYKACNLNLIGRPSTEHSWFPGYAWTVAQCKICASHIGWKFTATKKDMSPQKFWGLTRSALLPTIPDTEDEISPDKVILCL

For `CCn1c(=O)n(CC(=O)NCCCCCNC(=O)COc2cccc3c2C(=O)N(C2CCC(=O)NC2=O)C3=O)c(=O)c2cc(C(N)=O)c(N)cc21` (configuration not stated), which Activity [1] is on record?
The Activity was 32%.

With `CCn1c(=O)n(CC(=O)NCCCCNc2cccc3c2C(=O)N(C2CCC(=O)NC2=O)C3=O)c(=O)c2cc(C(N)=O)c(N)nc21` (configuration not stated) as the compound, how does the Activity [1] read?
The Activity was 35%.

For `Cc1ccc(C2=NC(C)(O)CC(C(C)C)[Se]2)cc1` (configuration not stated), which IC50 [2] is on record?
Its IC50 is 0.31 µM.

For `NC(=O)c1cc2c(=O)n(CC(=O)NCCOCCNC(=O)COc3cccc4c3C(=O)N(C3CCC(=O)NC3=O)C4=O)c(=O)n(C3CC3)c2cc1N` (configuration not stated), which Activity [1] is on record?
The Activity was “inactive”.

How did the Activity [1] turn out when `CCn1c(=O)n(CC(=O)NCCCCNC(=O)COc2cccc3c2C(=O)N(C2CCC(=O)NC2=O)C3=O)c(=O)c2cc(C(N)=O)c(N)nc21` (configuration not stated) was run?
Its Activity is 26%.

`CCn1c(=O)n(CC(=O)NCCCCCNc2cccc3c2C(=O)N(C2CCC(=O)NC2=O)C3=O)c(=O)c2cc(C(N)=O)c(N)cc21` (configuration not stated) was tested. Which Activity [1] did it give?
The Activity was 24%.

Which Activity [1] does the source give for `CCn1c(=O)n(CC(=O)NCCNc2cccc3c2C(=O)N(C2CCC(=O)NC2=O)C3=O)c(=O)c2cc(C(N)=O)c(N)nc21` (configuration not stated) here?
Its Activity is “inactive”.

`CCn1c(=O)n(CC(=O)NCCOCCNC(=O)COc2cccc3c2C(=O)N(C2CCC(=O)NC2=O)C3=O)c(=O)c2cc(C(N)=O)c(N)nc21` (configuration not stated) was tested. Which Activity [1] did it give?
The Activity was 56.7%.

What about the Activity [3] of the same compound?
The Activity was “Active”.

And the Activity [4]?
Its Activity is “inactive”.

What about the Activity [5] of the same compound?
Its Activity is “inactive”.

What about the Activity [6] of the same compound?
The Activity was “Active”.

What about the Activity [7] of the same compound?
Its Activity is “Active”.

And the Activity [8]?
Its Activity is “Active”.

What about the Activity [9] of the same compound?
Its Activity is “Active”.

What about the viability at 50 µM [10] of the same compound?
The viability at 50 µM was 89.9%.

What about the Activity [11] of the same compound?
The Activity was 5.29%.

What about the Activity [12] of the same compound?
Its Activity is 3.24%.

And the Activity [13]?
Its Activity is 1.6%.

And the viability at 100 µM [14]?
The viability at 100 µM was 84.4%.

What about the Activity [15] of the same compound?
The Activity was 7.51%.

And the Activity [16]?
The Activity was 7.38%.

And the Activity [17]?
The Activity was 0.68%.

What about the viability at 200 µM [18] of the same compound?
The viability at 200 µM was 67.6%.

And the Activity [19]?
Its Activity is 24.72%.

What about the Activity [20] of the same compound?
The Activity was 6.12%.

What about the Activity [21] of the same compound?
Its Activity is 1.57%.

What about the Activity [22] of the same compound?
Its Activity is “Toxic”.

And the Activity [23]?
Its Activity is “Active”.

What about the Activity [24] of the same compound?
Its Activity is “Active”.

And the Activity [25]?
Its Activity is “Active”.

`NC(=O)c1cc2c(=O)n(CC(=O)NCCCCCCNC(=O)COc3cccc4c3C(=O)N(C3CCC(=O)NC3=O)C4=O)c(=O)n(C3CC3)c2nc1N` (configuration not stated) was tested. Which Activity [1] did it give?
The Activity was “inactive”.

For `N#CC1=C(N)SC(N)=C(C#N)C1c1ccccc1F`, which IC50 [2] is on record?
Its IC50 is 60 µM.

Which Activity [1] does the source give for `CCn1c(=O)n(CC(=O)NCCOCCNc2cccc3c2C(=O)N(C2CCC(=O)NC2=O)C3=O)c(=O)c2cc(C(N)=O)c(N)cc21` (configuration not stated) here?
The Activity was 15%.

With `NC(=O)c1cc2c(=O)n(CC(=O)NCCCNC(=O)COc3cccc4c3C(=O)N(C3CCC(=O)NC3=O)C4=O)c(=O)n(C3CC3)c2cc1N` (configuration not stated) as the compound, how does the Activity [1] read?
Its Activity is “inactive”.

`CCn1c(=O)n(CC(=O)NCCCNC(=O)COc2cccc3c2C(=O)N(C2CCC(=O)NC2=O)C3=O)c(=O)c2cc(C(N)=O)c(N)cc21` (configuration not stated) was tested. Which Activity [1] did it give?
Its Activity is 15.4%.

Which Activity [1] does the source give for `NC(=O)c1cc2c(=O)n(CC(=O)NCCCCCNC(=O)COc3cccc4c3C(=O)N(C3CCC(=O)NC3=O)C4=O)c(=O)n(C3CC3)c2cc1N` (configuration not stated) here?
The Activity was “inactive”.

From ChEMBL document CHEMBL4706525, “Designing an eEF2K-Targeting PROTAC small molecule that induces apoptosis in MDA-MB-231 cells” (Eur J Med Chem, 2020)
